Reference: patent US8288334B2, “Peptides for wound healing” (Gene Signal International SA, priority 2010, dated 2012)

What was measured:
[1] = test system: human microvascular endothelial cells (HMEC); experiment: in vitro angiogenesis assay (Matrigel, endothelial tube formation); format: cell-based; details: 400 μg/ml final concentration of each peptide, images at 6 h post incubation
Method: Angiogenesis of human microvascular endothelial cells (HMEC) was induced in vitro using a Matrigel assay described by Grant et al (1989, Cell, 1989; 58:933). This method is based on the differentiation of endothelial cells to form capillary structures on a Matrigel Matrix. Matrigel is prepared the Engelbreth-Holm-Swarm (EHS) mouse tumor, which represents a complex mixture of basement membrane proteins including type IV collagen, entactin, proteo-heparan sulfate and other growth factors.
Briefly, 250 μl of Matrigel were transferred to each well of a 24-well culture plate and incubated at 37° C. for 30 min to allow for the matrix solution to solidify. HMEC grown in complete growth medium EGM-2MV were harvested by trypsin, suspended in the same growth medium and 500 μl containing 70 000 cells were added on top of the solidified Matrigel in each well and in the presence or absence of protein. Cells were maintained in a humidified atmosphere air containing 5% CO2 at 37° C. for 18-24 hrs. Endothelial tube formation was observed and photographed under an inverted light microscope.
The results of the in vitro angiogenesis assay were presented in FIG. 1, using HMEC and 400 μg/ml final concentration of each peptide. Images were taken at 6 h post incubation.

trans-dermal wounds = experiment: wound healing of trans-dermal wounds in mice after topical application; format: in vivo; details: for wound healing compared with Vehicle treated wounds: 0.5 mg/ml (5 mg/kg), mice; for % healing of wounds, day 1 post treatment: day 1, 0.5 mg/ml (5 mg/kg), vehicle 16.9%; for % healing of wounds, day 1 post treatment / % healing of wounds, day 2 post treatment / % healing of wounds, day 3 post treatment / % healing of wounds, day 4 post treatment: 5 mm punch wounds; for % healing of wounds, day 2 post treatment: day 2, 0.5 mg/ml (5 mg/kg), vehicle 21.2%; for % healing of wounds, day 3 post treatment: day 3, 0.5 mg/ml (5 mg/kg), vehicle 45.9%; for % healing of wounds, day 4 post treatment: day 4, 0.5 mg/ml (5 mg/kg), vehicle 57.5%
Method: The vehicle (Batch A) was administered by topical application at a standardized volume of 10 ml/kg for all applications. The peptides of the invention were administered by topical application at the concentration of 0.5 mg/ml in the vehicle. The protocols of treatment were as it follows: • Group 1: (Batch A, Vehicle): 1 topical application 10 minutes after wounding • Group 2: (Peptide 7, 0.5 mg/ml): 1 topical application 10 minutes after wounding • Group 3: (Peptide 10, 0.5 mg/ml): 1 topical application 10 minutes after wounding • Group 4: (Peptide 11, 0.5 mg/ml): 1 topical application 10 minutes after wounding • Group 5: (Peptide 7B, 0.5 mg/ml): 1 topical application 10 minutes after wounding. • Group 6: (Peptide 7A, 0.5 mg/ml): 1 topical application 10 minutes after wounding. • Group 7: (Peptide 7C, 0.5 mg/ml): 1 topical application 10 minutes after wounding. Wounding
Healthy female BALBC Swiss mice were anesthetized by IP injection of Ketamine-Xylazine (80 mg/kg-12 mg/kg; Ref. K-113, Sigma, France). Two trans-dermal wounds, each of 5 mm in width and about 1 to 2 mm in depth were realized in the right and the left flanks of each mouse using 5 mm punch.
At D1, and 10 min post-injury of the animals, the mice were randomized into 7 groups of 3 mice each.
All treatments were realized by topical application at the frequency of 1 topical application/day, for 4 days. Animals of group 1 were treated with the vehicle solution (Batch A). Animals of groups 2 to 7 were treated with the indicated peptide at a dose of 5 mg/kg.

VEGFA protein = VEGFA protein by human VEGFA sandwich ELISA in HMEC culture medium; format: cell-based; details: HMEC incubated with increasing concentrations of peptide
Method: Serum-deprived HMEC were incubated with different concentrations of peptide 7 or peptide 10 or vehicle […]. After 3 washes with ice-cold PBS, cells were suspended with the protein extraction buffer (PEB) (20 mM Tris-HCl pH 7.5, 150 mM NaCl, 1 mM EDTA, 1 mM EGTA, 1% Triton, 25 mM sodium pyrophosphate, 1 mM β-glycero-phosphate, 1 mM Na3Vo4, 1 μg/ml leupeptine, 1 μM PMSF). The protein content was measured by Bradford. VEGFA concentration in the culture medium or in the extracts was determined by human VEGFA Sandwich ELISA kit (Cell Signaling technology) according to the manufacturer's instructions.

[2] = test system: Akt (phosphoserine 473 pAkt); experiment: activation status of protein kinase B (pAkt) by western-blot in HMEC; format: cell-based, human; details: 400 μg/ml, 10 min and 30 min post incubation, immunoblot
Method: The activation status of pAkt was determined by western-blot using an anti-phosphoserine 473 pAkt antibody, and anti-GAPDH mAb as internal standard.
The status of Akt in the HMEC following incubation with either peptide 7 or peptide 10 was investigated.

MAPK (Erk1 and 2) = experiment: activation status of MAPK (pErk1/2) by western-blot in HMEC; format: cell-based, human; details: immunoblot anti-activated MAPK (pErk1/2)
Method: The activation status of MAPK was determined by western-blot using an anti-activated MAPK (pErk1/2) antibody, and anti-GAPDH mAb as internal standard.
We have also investigated the status of the mitogen activated protein kinase (MAPK), as it is well established that it represents another cascade of intracellular signaling could be implicated in the regulation of VEGF expression.

Sequence | in vitro angiogenesis-inducing activity [1] | wound healing compared with Vehicle treated wounds (trans-dermal wounds) | VEGF protein within the culture medium, concentration dependence (VEGFA protein) | level of activated Akt relative to HMEC incubated without peptide (Control) [2] | level of activation of Erk1 and 2 (MAPK) versus Control (MAPK (Erk1 and 2)) | % healing of wounds, day 1 post treatment (trans-dermal wounds) [%] | % healing of wounds, day 2 post treatment (trans-dermal wounds) [%] | % healing of wounds, day 3 post treatment (trans-dermal wounds) [%] | % healing of wounds, day 4 post treatment (trans-dermal wounds) [%]
QSQKVPRQVQS [Peptide 11] | strong in vitro angiogenesis-inducing activity | healed faster than the wounds treated with Vehicle | – | – | – | – | – | – | –
TQECPVRTSLDRELDLQASL [Peptide 7] | strong in vitro angiogenesis-inducing activity | healed faster than the wounds treated with Vehicle | dose-dependent increase in VEGF protein | much higher level of activated Akt | not significant variations in level of activation of Erk1 and 2 | – | – | – | –
RRTTQECPVRTSLD [Peptide 7C] | – | healed faster than the wounds treated with Vehicle | – | – | – | 39.4 | 55.3 | 58.8 | 68.2
TQECPVRTSLD [Peptide 7A] | – | healed faster than the wounds treated with Vehicle | – | – | – | 27.4 | 44.7 | 45.1 | 58.8
ELDLQASL [Peptide 7B] | – | healed faster than the wounds treated with Vehicle | – | – | – | – | – | – | –
VSKDVCRL [Peptide 10] | strong in vitro angiogenesis-inducing activity | healed faster than the wounds treated with Vehicle | – | much higher level of activated Akt | not significant variations in level of activation of Erk1 and 2 | – | – | – | –
